From patent publication US9132140B2, “Boronic acid derivatives and therapeutic uses thereof” (Rempex Pharmaceuticals, Inc., priority 2013, dated 2015)
Where two headings read alike, the source gives them in different places.

Tests used:
[1] = tested on: KP1081 (NDM-1, TEM-1, SHV-11, CMY-6, CTX-M-15); format: cell-based, Klebsiella pneumoniae; conditions: KP1081; alone
Description: (§1) The results are present in Table 6.
(§2) The results are present in Table 7.

[2] = tested on: KP1087 (KPC-2, CTX-M-15, SHV-11, TEM-1); format: cell-based, Klebsiella pneumoniae; conditions: KP1087; alone
Description: as §1, §2

EA1019 (SHV-5, VIM-1) = format: cell-based, Enterobacter aerogenes; conditions: EA1019; alone
Description: (§3) Several strains simultaneously expressing both class A and class B carbapenemases, which were constructed using conjugation, were also included in the panel.

KP1004 (KPC TEM SHV) = format: cell-based, Klebsiella pneumoniae; conditions: KP1004; alone
Description: as §3

KP1014 (Vim-1, TEM, SHV) = format: cell-based, Klebsiella pneumoniae; conditions: KP1014; alone
Description: as §3

KP1054 (VIM-1, SHV-11) = format: cell-based, Klebsiella pneumoniae; conditions: KP1054; alone
Description: as §3

KP1059 (VIM-1, SHV-11) = format: cell-based, Klebsiella pneumoniae; conditions: KP1059; alone
Description: as §3

KP1061 (KPC TEM SHV) = format: cell-based, Klebsiella pneumoniae; conditions: KP1061; alone
Description: as §3

KP1064 (KPC TEM SHV) = format: cell-based, Klebsiella pneumoniae; conditions: KP1064; alone
Description: as §3

KP1065 (VIM-1, SHV-11) = format: cell-based, Klebsiella pneumoniae; conditions: KP1065; alone
Description: as §3

KP1070 (KPC TEM SHV) = format: cell-based, Klebsiella pneumoniae; conditions: KP1070; alone
Description: as §3

[3] = tested on: KP1081 (NDM-1, TEM-1, SHV-11, CMY-6, CTX-M-15); format: cell-based, Klebsiella pneumoniae; conditions: KP1081; alone; remark: listed apart in the source
Description: as §3

[4] = tested on: KP1084 (KPC-3, SHV-11, TEM-1); format: cell-based, Klebsiella pneumoniae; conditions: KP1084; alone
Description: as §3

KP1097 (IMP-1 SHV) = format: cell-based, Klebsiella pneumoniae; conditions: KP1097; alone
Description: as §3

KP1098 (IMP-26 TEM SHV) = format: cell-based, Klebsiella pneumoniae; conditions: KP1098; alone
Description: as §3

KPM1097 (NDM, KPC) = format: cell-based, Klebsiella pneumoniae; conditions: KPM1097; alone
Description: as §3

KPM1099 (NDM, KPC) = format: cell-based, Klebsiella pneumoniae; conditions: KPM1099; alone
Description: as §3

KPM1107 (NDM, KPC) = format: cell-based, Klebsiella pneumoniae; conditions: KPM1107; alone
Description: as §3

KPM1108 (NDM, KPC) = format: cell-based, Klebsiella pneumoniae; conditions: KPM1108; alone
Description: as §3

KPM1109 (NDM, KPC) = format: cell-based, Klebsiella pneumoniae; conditions: KPM1109; alone
Description: as §3

KPM1110 (NDM, KPC) = format: cell-based, Klebsiella pneumoniae; conditions: KPM1110; alone
Description: as §3

KPM1111 (NDM, KPC) = format: cell-based, Klebsiella pneumoniae; conditions: KPM1111; alone
Description: as §3

KPM1122 (NDM, VIM) = format: cell-based, Klebsiella pneumoniae; conditions: KPM1122; alone
Description: as §3

KPM1123 (KPC-2 TEM SHV) = format: cell-based, Klebsiella pneumoniae; conditions: KPM1123; alone
Description: as §3

KPM1344 (VIM-1) = format: cell-based, Klebsiella pneumoniae; conditions: KPM1344; alone
Description: as §3

KPM1345 (VIM-1 SHV) = format: cell-based, Klebsiella pneumoniae; conditions: KPM1345; alone
Description: as §3

[5] = tested on: KPM1346 (NDM-1 TEM SHV CTX-M-15 CMY); format: cell-based, Klebsiella pneumoniae; conditions: KPM1346; alone
Description: as §3

[6] = tested on: KPM1347 (NDM-1 SHV CTX-M-15); format: cell-based, Klebsiella pneumoniae; conditions: KPM1347; alone
Description: as §3

ECL1026 (KPC) = format: cell-based, Enterobacter cloacae; conditions: ECL1026; alone
Description: as §3

ECL1036 (KPC) = format: cell-based, Enterobacter cloacae; conditions: ECL1036; alone
Description: as §3

ECL1045 (VIM-1) = format: cell-based, Enterobacter cloacae; conditions: ECL1045; alone
Description: as §3

ECL1055 (KPC) = format: cell-based, Enterobacter cloacae; conditions: ECL1055; alone
Description: as §3

[7] = tested on: ECL1057 (NDM-1, TEM-1, CTX-M-15); format: cell-based, Enterobacter cloacae; conditions: ECL1057; alone
Description: as §3

ECL1082 (VIM-1) = format: cell-based, Enterobacter cloacae; conditions: ECL1082; alone
Description: as §3

ECLM1013 (NDM, KPC) = format: cell-based, Enterobacter cloacae; conditions: ECLM1013; alone
Description: as §3

ECLM1014 (NDM, KPC) = format: cell-based, Enterobacter cloacae; conditions: ECLM1014; alone
Description: as §3

ECLM1015 (NDM, KPC) = format: cell-based, Enterobacter cloacae; conditions: ECLM1015; alone
Description: as §3

ECLM1016 (NDM, KPC) = format: cell-based, Enterobacter cloacae; conditions: ECLM1016; alone
Description: as §3

ECLM1017 (VIM, KPC) = format: cell-based, Enterobacter cloacae; conditions: ECLM1017; alone
Description: as §3

ECLM1018 (VIM, KPC) = format: cell-based, Enterobacter cloacae; conditions: ECLM1018; alone
Description: as §3

ECLM1019 (VIM, KPC) = format: cell-based, Enterobacter cloacae; conditions: ECLM1019; alone
Description: as §3

EC1061 (NDM-1, CMY-6) = format: cell-based, Escherichia coli; conditions: EC1061; alone
Description: as §3

[8] = tested on: EC1064 (NDM-1, CMY-6, CTX-M-15); format: cell-based, Escherichia coli; conditions: EC1064; alone
Description: as §3

EC1065 (IMP-1 CMY-2) = format: cell-based, Escherichia coli; conditions: EC1065; alone
Description: as §3

EC1068 (VIM-1) = format: cell-based, Escherichia coli; conditions: EC1068; alone
Description: as §3

## C[C@@H](O)[C@H]1C(=O)N2C(C(=O)O)=C(S[C@@H]3CN[C@H](C(=O)N(C)C)C3)[C@H](C)[C@H]12 [Meropenem, reference compound]
[1]
  Carbapenem MIC alone: Z (MIC of greater than 10 μg/mL)
[2]
  Carbapenem MIC alone: Z (MIC of greater than 10 μg/mL)
EA1019 (SHV-5, VIM-1)
  Carbapenem MIC alone: Z (MIC of greater than 10 μg/mL)
KP1004 (KPC TEM SHV)
  Carbapenem MIC alone: Z (MIC of greater than 10 μg/mL)
KP1014 (Vim-1, TEM, SHV)
  Carbapenem MIC alone: Z (MIC of greater than 10 μg/mL)
KP1054 (VIM-1, SHV-11)
  Carbapenem MIC alone: Z (MIC of greater than 10 μg/mL)
KP1059 (VIM-1, SHV-11)
  Carbapenem MIC alone: Z (MIC of greater than 10 μg/mL)
KP1061 (KPC TEM SHV)
  Carbapenem MIC alone: Y (MIC of 1 μg/mL to 10 μg/mL)
KP1064 (KPC TEM SHV)
  Carbapenem MIC alone: Z (MIC of greater than 10 μg/mL)
KP1065 (VIM-1, SHV-11)
  Carbapenem MIC alone: Y (MIC of 1 μg/mL to 10 μg/mL)
KP1070 (KPC TEM SHV)
  Carbapenem MIC alone: Z (MIC of greater than 10 μg/mL)
[3]
  Carbapenem MIC alone: Z (MIC of greater than 10 μg/mL)
[4]
  Carbapenem MIC alone: Z (MIC of greater than 10 μg/mL)
KP1097 (IMP-1 SHV)
  Carbapenem MIC alone: Z (MIC of greater than 10 μg/mL)
KP1098 (IMP-26 TEM SHV)
  Carbapenem MIC alone: Z (MIC of greater than 10 μg/mL)
KPM1097 (NDM, KPC)
  Carbapenem MIC alone: Z (MIC of greater than 10 μg/mL)
KPM1099 (NDM, KPC)
  Carbapenem MIC alone: Z (MIC of greater than 10 μg/mL)
KPM1107 (NDM, KPC)
  Carbapenem MIC alone: Z (MIC of greater than 10 μg/mL)
KPM1108 (NDM, KPC)
  Carbapenem MIC alone: Z (MIC of greater than 10 μg/mL)
KPM1109 (NDM, KPC)
  Carbapenem MIC alone: Z (MIC of greater than 10 μg/mL)
KPM1110 (NDM, KPC)
  Carbapenem MIC alone: Z (MIC of greater than 10 μg/mL)
KPM1111 (NDM, KPC)
  Carbapenem MIC alone: Z (MIC of greater than 10 μg/mL)
KPM1122 (NDM, VIM)
  Carbapenem MIC alone: Z (MIC of greater than 10 μg/mL)
KPM1123 (KPC-2 TEM SHV)
  Carbapenem MIC alone: Z (MIC of greater than 10 μg/mL)
KPM1344 (VIM-1)
  Carbapenem MIC alone: Z (MIC of greater than 10 μg/mL)
KPM1345 (VIM-1 SHV)
  Carbapenem MIC alone: Y (MIC of 1 μg/mL to 10 μg/mL)
[5]
  Carbapenem MIC alone: Z (MIC of greater than 10 μg/mL)
[6]
  Carbapenem MIC alone: Z (MIC of greater than 10 μg/mL)
ECL1026 (KPC)
  Carbapenem MIC alone: Y (MIC of 1 μg/mL to 10 μg/mL)
ECL1036 (KPC)
  Carbapenem MIC alone: Y (MIC of 1 μg/mL to 10 μg/mL)
ECL1045 (VIM-1)
  Carbapenem MIC alone: Y (MIC of 1 μg/mL to 10 μg/mL)
ECL1055 (KPC)
  Carbapenem MIC alone: Y (MIC of 1 μg/mL to 10 μg/mL)
[7]
  Carbapenem MIC alone: Z (MIC of greater than 10 μg/mL)
ECL1082 (VIM-1)
  Carbapenem MIC alone: Y (MIC of 1 μg/mL to 10 μg/mL)
ECLM1013 (NDM, KPC)
  Carbapenem MIC alone: Z (MIC of greater than 10 μg/mL)
ECLM1014 (NDM, KPC)
  Carbapenem MIC alone: Z (MIC of greater than 10 μg/mL)
ECLM1015 (NDM, KPC)
  Carbapenem MIC alone: Z (MIC of greater than 10 μg/mL)
ECLM1016 (NDM, KPC)
  Carbapenem MIC alone: Z (MIC of greater than 10 μg/mL)
ECLM1017 (VIM, KPC)
  Carbapenem MIC alone: Z (MIC of greater than 10 μg/mL)
ECLM1018 (VIM, KPC)
  Carbapenem MIC alone: Z (MIC of greater than 10 μg/mL)
ECLM1019 (VIM, KPC)
  Carbapenem MIC alone: Z (MIC of greater than 10 μg/mL)
EC1061 (NDM-1, CMY-6)
  Carbapenem MIC alone: Z (MIC of greater than 10 μg/mL)
[8]
  Carbapenem MIC alone: Z (MIC of greater than 10 μg/mL)
EC1065 (IMP-1 CMY-2)
  Carbapenem MIC alone: Y (MIC of 1 μg/mL to 10 μg/mL)
EC1068 (VIM-1)
  Carbapenem MIC alone: Z (MIC of greater than 10 μg/mL)
